US20090221683A1, “Combination of CXCR4 Antagonist and Morphogen to Increase Angiogenesis” (Caritas St.Elizabeth Medical Center of Boston, Inc, priority 2005, published 2009)
Like-named read-outs stand apart in the source and are kept apart here.

Tests used:
[1] = tested on: peripheral blood MNCs and EPCs
Experimental: (§1) Peripheral blood mononuclear cells (PBMNCs) were isolated from 500 μl of peripheral blood obtained from each mouse. PBMNCs were cultured in EBM media (Clonetics, San Diego, Calif.) supplemented with 5% fetal bovine serum (FBS), antibiotics, and growth factors (EPC medium) on four 4-well glass slides coated with rat plasma vitronectin (Sigma) in 0.5% gelatin solution. Four days after culture, EPCs, recognized as attaching spindle-shaped cells, were assayed by co-staining with acetylated LDL (acLDL)-DiI (Biomedical Technologies, Stoughton, Mass.) and Bandeiraea simplicifolia (BS-1) lectin I (Vector Laboratories, Burlingame, Calif.), characteristics indicators of endothelial lineage, and conjugated with FITC (Sigma). Fluorescent microscopy identified double-positive cells as […] The numbers of double-positive cells per sample, measured in fifteen fields under 20× magnification, was were counted per sample in a blinded manner.
(§2) Such methods can be used for study of the compositions and methods of the instant invention.

[2] = tested on: border zone between scar and normal tissue capillaries; test: Chronic MI rats: capillary density in the border zone; assay type: in vivo, rat; conditions: 4 weeks after treatment
Experimental: (§3) Methods: Using wild-type rats, MI was induced by ligation of the left anterior descending artery. […] 4 weeks after treatment, echocardiography, hemodynamic measurement and histological examination were performed.

mice with AMI = tested on: mice with AMI
Experimental: (§4) Eight-week old male FVB mice were anesthetized with sodium pentobarbital (50 mg/kg IP). The animals were intubated orally with a 22G IV catheter and artificially ventilated with a respirator (Harvard Apparatus). A left intercostal thoracotomy was performed and the ribs were retracted with 5-0 polypropylene sutures. After the pericardium was opened, the left anterior descending (LAD) branch of the left coronary artery was ligated proximal to the bifurcation between the LAD and the diagonal branch using 8-0 polypropylene sutures and visualized with a dissecting microscope. Positive end-expiratory pressure was applied to fully inflate the lungs, and the chest was closed with 7-0 polypropylene sutures. […] After physiological assessment at one, two and four weeks after MI, a subgroup of the mice were euthanized by intravenous administration of a lethal dose of pentobarbital.
All values were expressed as mean±the standard error of the mean. […] Overall survival of all the mice was assessed by Kaplan-Meier analysis. Survival in individual experimental groups was also analyzed by Fisher's extract probability test. A p value of less than 0.05 was considered statistically significant.

[3] = tested on: bone marrow EPCs (Sca-1/Flk-1 positive); conditions: one week after MI
Experimental: (§5) Fluorescence-activated cell sorting (FACS) was used to identify EPCs from mononuclear cells isolated both from peripheral blood and bone marrow. The viable mononuclear cell population was analyzed for the expression of Sca-1-FITC (Pharmingen) and Flk-1 (Santa Cruz) conjugated with the corresponding phycoerythrin-labeled secondary antibody (Sigma). Isotype-identical antibodies served as negative controls. Immunofluorescence-labeled cells were fixed with 2% paraformaldehyde and analyzed by quantitative flow cytometry using a FACStar flow cytometer (Becton Dickinson) and Cell Quest Software that counted 10,000 events per sample.

[4] = tested on: peripheral blood EPCs (Sca-1/Flk-1 positive); conditions: one week after MI
Experimental: as §5

peripheral blood EPCs = tested on: peripheral blood EPCs
Experimental: as §1
At each time point after the induction of MI, mononuclear cells were isolated from peripheral blood and total BM cells that had been obtained by flushing the tibias and femurs. EPCs were counted by culturing as described in Example 1, and stained with both acLDL-DiI and BS-1 lectin. Double positive cells were counted in 15 fields under objective 20× magnification per sample in a blinded manner.

[5] = tested on: bone marrow derived EPCs (X-gal positive cells); conditions: Tie2-LacZ/BMT mice
Excerpt: as §2, §2

[6] = tested on: bone-marrow derived endothelial cells (double-positive cells); conditions: one week after AMI
Excerpt: as §2
Apex-sections from the Tie-2/LZ/BMT mice were embedded in OCT compound (Miles Scientific) and snap-frozen in liquid nitrogen for fluorescence microscopy immediately after sacrifice.
Sections of ischemic (FIGS. 12A-12F) and intact (FIGS. 13A-13F) myocardium were stained for both BS lectin 1 (green fluorescence) and β-galactosidase (red fluorescence). […] Such methods can be used for study of the compositions and methods of the instant invention.

[7] = tested on: FVB mice with myocardial infarction; conditions: for FS (fractional shortening) / LVDd (left ventricular diastolic dimension) / LVDs (left ventricular systolic dimension) / LV + dP/dt / LV − dP/dt / LVEDP (left ventricular end-diastolic pressure) / LVSP (left ventricular systolic pressure): mean ± SE
Experimental: as §4
Transthoracic echocardiography (SONOS 5500, Hewlett Packard) was performed just before MI and one, two and four weeks after MI. Left ventricular diastolic (LVDd) and systolic (LVDs) dimensions and fractional shortening were measured at the mid-papillary muscle level. Hemodynamic measurements were obtained at two and four weeks after MI using a 1.0-French high-fidelity pressure catheter (Millar Instruments, Houston, Tex.) via the left carotid artery. LV systolic pressure and maximal positive (+dP/dt) and negative (−dP/dt) pressure development were recorded after stabilization of LV function and heart rate. Such methods can be used for study of the compositions and methods of the instant invention.

[8] = tested on: left ventricular myocardium border zone capillaries; conditions: two weeks after AMI
Experimental: (§6) The explanted hearts of sacrificed mice were sliced in a bread-loaf fashion into transverse sections from apex to base (base-, mid-, and apex-portions) and fixed with 4% paraformaldehyde. Tissues were embedded in paraffin and sectioned for elastic tissue/trichrome staining and immunohistochemistry using the murine-specific EC marker Bandeiraea simplicifolia lectin I (Isolectin B4) (Vector laboratories).
(§7) Capillary density was assessed by histological examination of five randomly selected fields of tissue sections from segments of the left ventricular myocardium served by the occluded LAD. Capillaries were recognized as tubular structures positive for isolectin B4. Elastic tissue/trichrome-stained tissues from the mice four weeks after MI were used to measure the average ratio of the external circumference of fibrosis area to LV area.

left ventricle fibrosis = conditions: two weeks after AMI
Experimental: as §6, §7

MMP-9 mRNA = conditions: one week after MI; RT-PCR
Experimental: (§8) RNA was extracted from mononuclear cells isolated from bone marrow using TRIzol reagent (Invitrogen) according to the manufacture's instruction. Reverse transcriptase-polymerase chain reaction (RT-PCR) of the MMP-9 and GAPDH genes was performed using 1 pg of total RNA. PCR was performed for 25 cycles for both MMP-9 and GAPDH; each cycle maintained 94° C. for 30 seconds and 64° C. for three minutes. Amplification was carried out in 20-μl reaction mixtures containing 0.4 U Taq polymerase.

MMP-2 mRNA = conditions: one week after MI; RT-PCR
Experimental: as §8

[9] = tested on: bone marrow EPCs (Sca-1/Flk-1 positive) of MMP-9-/- mice; conditions: 1 week after MI
Excerpt: MMP-9 expression was disrupted by deleting of most of exon 2 of the MMP-9 gene in the 129/SvEv genetic background (Jackson), as described previously. [Vu, 1998 #2370] […] Mononuclear cells from peripheral blood and total BM cells were isolated one week after MI and were examined by FACS analysis as described above.

circulating EPC = conditions: 2 hour after treatment; 240 μg/kg SC
Experimental: as §3

[10] = 1 week after MI, 125 μg s.c. single injection
[11] = 2 weeks after MI, 125 μg s.c. single injection
[12] = 2 weeks after MI, 125 μg s.c. single injection, listed as AMD
[13] = 2 weeks after MI, listed as AMD
[14] = 4 weeks after MI, 125 μg s.c. single injection
[15] = 4 weeks after MI, 125 μg s.c. single injection, listed as AMD
[16] = 4 weeks after MI, listed as AMD

In the case of c1cc(CN2CCCNCCNCCCNCC2)ccc1CN1CCCNCCNCCCNCC1 [AMD-3100, 1,1′-[1,4-phenylene-bis(methylene)]-bis-1,4,8,11-tetraazacyclotetradecane], the “maximal MNCs and EPCs (acLDL uptake and BS-1 lectin double-positive cells)” value ([1]; 1 hour after single s.c. injection of 125 μg, n=5 experiments) was 613±89 cells/mm^2, the “time for number of EPCs/MNCs to return to baseline after injection” value ([1]; single s.c. injection of 125 μg) was at most 24 h and the “capillary density in the border zone between scar and normal tissue, increase vs. control” value [2] was “+52%”. The “mice still living (survival rate)” value (mice with AMI; 14 weeks after AMI, FIG. 4A) was 64%, the mice died (mice with AMI; another group of mice, four weeks after MI, FIG. 4B) was 42% and the “survival rate versus mice receiving saline” value (mice with AMI; four weeks after MI, P<0.05) was “higher”. The “EPCs (Sca-1/Flk-1 positive) in BM mononuclear cells by FACS” value [3] was 1.9±0.1%, the “EPCs (Sca-1/Flk-1 positive) in peripheral blood mononuclear cells by FACS” value [4] was 11.3±1.4% and the “number of cultured EPCs” value (peripheral blood EPCs; four weeks after AMI) was “returned to basline”. The “number of EPCs in the peripheral blood (cultured, acLDL-DiI/BS-1 lectin double positive)” value (peripheral blood EPCs; one week after AMI) was 868±210 /mm^2, the “number of EPCs in the peripheral blood (cultured, acLDL-DiI/BS-1 lectin double positive)” value (peripheral blood EPCs; two weeks after AMI) was 556±47 /mm^2 and the “number of X-gal positive cells in infarct and border area” value ([5]; 1 week after AMI) was 3776±113 /mm^2. The “number of X-gal positive cells in infarct and border area” value ([5]; 2 weeks after AMI) was 1906±138 /mm^2, the “double-positive cells (BS lectin 1 and β-galactosidase)” value ([6]; a representative section) was “eight” and the “double-positive cells (BS lectin 1 and β-galactosidase)” value ([6]; another representative section) was “eight”. The “FS (fractional shortening)” value [7, 10] was 35 ± 2%, the “LVDd (left ventricular diastolic dimension)” value (shortened to “LVDd”) [7, 10] was 3.5 ± 0.1 mm and the “LVDs (left ventricular systolic dimension)” value [7, 10] was 2.2 ± 0.1 mm. The “FS (fractional shortening)” value [7, 11] was 34±1%, the “LVDd” value [7, 11] was 3.8±0.1 mm and the “LVDs (left ventricular systolic dimension)” value [7, 11] was 2.5±0.1 mm. For the same compound, the “FS (fractional shortening)” value [7, 12] was 34±1%, the “LVDd” value [7, 12] was 3.8 ± 0.1 mm and the “LVDs (left ventricular systolic dimension)” value [7, 12] was 2.5 ± 0.1 mm. For the same compound, the “LVDd” value ([7]; 2 weeks after MI, 125 μg s.c. single injection, listed as AMD3100) was 3.8±0.1 mm, the “LV + dP/dt” value ([7]; 2 weeks after MI) was 3383±104 mm Hg/s and the “LV − dP/dt” value ([7]; 2 weeks after MI) was 2213±113 mm Hg/s. For the same compound, the “LVEDP (left ventricular end-diastolic pressure)” value (“LVEDP” below) ([7]; 2 weeks after MI) was 1.6±0.4 mmHg, the “LVSP (left ventricular systolic pressure)” value ([7]; 2 weeks after MI) was 71±2 mmHg and the “LV − dP/dt” value [7, 13] was 2842 ± 200 mm Hg/s. For the same compound, the “LVEDP” value [7, 13] was 1.5±0.2 mmHg, the “LVSP (left ventricular systolic pressure)” value [7, 13] was 73 ± 3 mmHg and the LVDs ([7]; 3 wks post-MI (as printed in text)) was 2.5±0.2 mm. The “LVDd” value [7, 14] was 4.0±0.1 mm, the “LVDs (left ventricular systolic dimension)” value [7, 14] was 2.6±0.2 mm and the “FS (fractional shortening)” value [7, 15] was 28±1%. The “LVDd” value [7, 15] was 4.0 ± 0.1 mm, the “LVDs (left ventricular systolic dimension)” value [7, 15] was 2.9 ± 0.1 mm and the “LV − dP/dt” value ([7]; 4 weeks after MI) was 2213 ± 112 mm Hg/s. For the same compound, the “LV + dP/dt” value [7, 16] was 3383±104 mm Hg/s, the “LVEDP” value [7, 16] was 1.6±0.4 mmHg and the “LVSP (left ventricular systolic pressure)” value [7, 16] was 71±2 mmHg. The “FS (fractional shortening)” value ([7]; Before MI (baseline)) was 52 ± 1%, the “LVDd” value ([7]; Before MI (baseline)) was 2.8 ± 0.1 mm and the “LVDs (left ventricular systolic dimension)” value ([7]; Before MI (baseline)) was 1.4 ± 0.1 mm. For the same compound, the “difference in left ventricular systolic pressure (LVSP) between the groups” value ([7]; two weeks after MI) was “no significant difference”, the “capillary density in the border zone” value [8] was 4005±189 /mm^2 and the “fibrosis area of left ventricle” value (left ventricle fibrosis) was 25±6%. The “MMP-9 mRNA expression in BM-mononuclear cells” value (MMP-9 mRNA) was “enhanced expression”, the “MMP-2 mRNA expression in BM-mononuclear cells” value (MMP-2 mRNA) was “but not MMP-2” and the “difference in Sca-1/Flk-1 positive BM cells versus saline” value [9] was “no significant difference”. The “circulating EPC counts relative to baseline” value (circulating EPC) was “five”.
